For twelve compounds, IC50 results are on record in patent US11964988B2, “Fused heterocyclic compounds as RET kinase inhibitors” (ARRAY BIOPHARMA INC., priority 2018, dated 2024).

Substitutions are numbered along the chain they refer to.

One test concerns the target G810S mutant RET kinase (Homo sapiens, UniProt P07949, G810S). In words: biochemical.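 Further: HTRF KinEASE-TK kinase assay with recombinant enzyme, 1 h at 22 °C, dual-wavelength ratiometric read-out, percent of control (DMSO-only = 100, pre-quenched reaction = 0).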
The target of test [1] is T1, HEK-293 cells expressing a G810R mutant RET Kif5b-RET fusion protein (Homo sapiens, UniProt P07949, G810R).
T1 construct: KIF5B (N-terminal portion incl. coiled-coil); expressed in transfected cells; host or cells: HEK-293; the other entry of the earlier key: KIF5B (P33176, Kinesin-1 heavy chain)
T1 sequence (P07949 713-1063 G810R limits assumed): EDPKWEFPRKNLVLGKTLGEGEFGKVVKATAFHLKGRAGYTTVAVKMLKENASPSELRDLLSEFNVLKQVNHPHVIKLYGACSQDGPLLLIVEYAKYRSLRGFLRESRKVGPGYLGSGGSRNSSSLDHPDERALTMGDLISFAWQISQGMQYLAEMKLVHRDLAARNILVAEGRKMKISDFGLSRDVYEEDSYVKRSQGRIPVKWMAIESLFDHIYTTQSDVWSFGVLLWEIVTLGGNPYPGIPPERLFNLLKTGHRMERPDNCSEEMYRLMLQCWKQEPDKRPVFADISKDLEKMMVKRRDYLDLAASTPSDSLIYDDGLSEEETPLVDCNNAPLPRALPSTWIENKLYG
Kind of test: RET G810R Mutant Cell Assay (phospho-RET Tyr1062). The note with it: HEK-293 Kif5b-RET G810R, 1 hour incubation, phospho-RET normalized to GAPDH. It is filed as cell-based. In a few lines:
(§1)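 Engineered HEK-293 cells were treated 1 h with compound in DMEM, 0.5% DMSO final, then fixed, permeabilized and immunostained for phospho-RET Tyr1062 and GAPDH. In-cell fluorescence pRET signal was normalized to GAPDH; IC50 taken from a 4-parameter logistic fit of percent of control at 50 POC.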

In a further test the target is RET kinase V804M (Homo sapiens, UniProt P07949, V804M). In words: RET Enzyme Assay (CisBio HTRF KinEASE-TK), V804M. In kind it is biochemical. The note with it: read-out: RET V804M Enz FRET IC50.
Test [2] addresses T2, HEK-293 cells expressing a Kif5b-RET fusion protein (Homo sapiens, UniProt P07949).
T2 construct: KIF5B (N-terminal portion incl. coiled-coil); expressed in transfected cells; host or cells: HEK-293; the other entry of the earlier key: KIF5B (P33176, Kinesin-1 heavy chain)
T2 sequence (P07949 713-1063 limits assumed): T1 sequence (P07949 713-1063 G810R limits assumed) with R98G
Kind of test: RET Cell Assay (phospho-RET Tyr1062). To be noted: HEK-293 Kif5b-RET, 1 hour incubation, phospho-RET normalized to GAPDH; read-out: KIF5B-RET pTYR1062 Cell IC50. It is filed as cell-based. A digest of the protocol:
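Kif5b-RET HEK-293 cells treated 1 hour with compound in DMEM (0.5% DMSO final), then fixed and immunostained for phospho-RET Tyr1062, normalized to GAPDH by infrared fluorescence. IC50 where the 4-parameter logistic fit of POC crosses 50.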

A further test has as its target G810R mutant RET kinase (Homo sapiens, UniProt P07949, G810R). In words: biochemical.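 Further: HTRF KinEASE-TK enzymatic assay with 1 nM recombinant RET G810R, 1 h at 22 °C, dual-wavelength ratiometric readout, 100% control without compound, 0% from pre-quenched reactions.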
In the next test the target is RET kinase Wild Type (Homo sapiens, UniProt P07949). In words: biochemical.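 Further: HTRF kinase activity assay on RET enzyme, 1 h reaction at 22 °C, dual-wavelength readout as percent of control, DMSO-only wells as 100%, pre-quenched reactions as 0%.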
The target in test [3] is T3, HEK-293 cells expressing a G810S mutant RET Kif5b-RET fusion protein (Homo sapiens, UniProt P07949, G810S).
T3 construct: KIF5B (N-terminal portion incl. coiled-coil); expressed in transfected cells; host or cells: HEK-293
T3 sequence (P07949 713-1063 G810S limits assumed): T1 sequence (P07949 713-1063 G810R limits assumed) with R98S
In words: RET G810S Mutant Cell Assay (phospho-RET Tyr1062). In kind it is cell-based. The note with it: HEK-293 Kif5b-RET G810S, 1 hour incubation, phospho-RET normalized to GAPDH. In a few lines:
as §1

RET kinase V804M, sequence (P07949 29-1114 V804M): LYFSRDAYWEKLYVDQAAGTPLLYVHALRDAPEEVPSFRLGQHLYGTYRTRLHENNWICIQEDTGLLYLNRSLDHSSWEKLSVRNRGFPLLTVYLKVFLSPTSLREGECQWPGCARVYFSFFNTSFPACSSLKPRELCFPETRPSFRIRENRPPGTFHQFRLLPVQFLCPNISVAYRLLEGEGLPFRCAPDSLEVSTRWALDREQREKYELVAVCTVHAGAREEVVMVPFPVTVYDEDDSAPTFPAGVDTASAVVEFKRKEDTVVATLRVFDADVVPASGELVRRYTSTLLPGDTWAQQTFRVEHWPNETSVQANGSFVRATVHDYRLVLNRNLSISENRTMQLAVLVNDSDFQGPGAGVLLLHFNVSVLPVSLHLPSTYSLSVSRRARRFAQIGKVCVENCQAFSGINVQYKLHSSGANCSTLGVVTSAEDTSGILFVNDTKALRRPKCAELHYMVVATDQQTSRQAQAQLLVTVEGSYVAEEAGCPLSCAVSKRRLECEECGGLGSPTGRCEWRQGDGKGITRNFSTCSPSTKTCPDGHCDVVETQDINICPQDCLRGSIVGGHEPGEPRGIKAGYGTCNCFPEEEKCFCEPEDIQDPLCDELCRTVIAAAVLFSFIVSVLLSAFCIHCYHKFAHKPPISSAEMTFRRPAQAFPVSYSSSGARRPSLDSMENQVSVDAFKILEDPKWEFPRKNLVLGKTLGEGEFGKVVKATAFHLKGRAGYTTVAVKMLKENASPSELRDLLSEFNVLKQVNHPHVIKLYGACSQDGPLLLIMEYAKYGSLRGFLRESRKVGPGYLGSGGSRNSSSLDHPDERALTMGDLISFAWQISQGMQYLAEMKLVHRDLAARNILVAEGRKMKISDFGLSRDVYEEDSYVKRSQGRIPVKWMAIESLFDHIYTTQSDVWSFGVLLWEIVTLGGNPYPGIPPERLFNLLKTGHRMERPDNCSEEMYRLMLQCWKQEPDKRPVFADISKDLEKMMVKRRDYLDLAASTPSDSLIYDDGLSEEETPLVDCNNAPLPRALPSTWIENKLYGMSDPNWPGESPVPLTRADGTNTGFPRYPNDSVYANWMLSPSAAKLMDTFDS
G810R mutant RET kinase, sequence (P07949 29-1114 G810R): as the sequence (P07949 29-1114 V804M) above, with M776V, G782R counted along it
RET kinase Wild Type, sequence (P07949 29-1114): as the sequence (P07949 29-1114 V804M) above, with M776V counted along it
G810S mutant RET kinase, sequence (P07949 29-1114 G810S): as the sequence (P07949 29-1114 V804M) above, with M776V, G782S counted along it
Protocol for G810R mutant RET kinase: (§2) The potency of compounds inhibiting several different RET kinase forms (Wild Type, V804M, G810R, & G810S) were determined using CisBio's HTRF® KinEASE™-TK assay technology. […] After a 1 hour incubation at 22° C., the extent of reaction was determined using a PerkinElmer EnVision multimode plate reader via HTRF dual wavelength detection, and the percent of control (POC) was calculated using a ratiometric emission factor. One hundred POC was determined using DMSO only samples (no compound present), and 0 POC was determined using pre-quenched control reactions.
The potency of a compound inhibiting G810R or G810S mutant RET kinase was determined using CisBio's HTRF® KinEASE™-TK assay technology. The assays contained G810R or G810S mutant RET produced at Array Biopharma, Inc. (1 nM enzyme). […] After a 1-h incubation at 22° C., the extent of reaction was determined using a PerkinElmer EnVision multimode plate reader via HTRF dual wavelength detection, and the percent of control (POC) was calculated using a ratiometric emission factor. One hundred POC was determined using no test compounds, and 0 POC was determined using pre-quenched control reactions.
Protocol for RET kinase V804M: as §2

For `CC(C)n1c2c(c3c(N)ncnc31)-c1noc(C3CC3)c1S(=O)(=O)CC2` [Example 23, 11-amino-3-cyclopropyl-7-isopropyl-6,7-dihydro-5H-isoxazolo[4″,3″:2′,3′]thiepino[4′,5′:4,5]pyrrolo[2,3-d]pyrimidine 4,4-dioxide 2,2,2-trifluoroacetate], the IC50 was determined as 0.054 µM against G810S mutant RET kinase; 0.133 µM in test [1]; 0.189 µM on RET kinase V804M; 0.02 µM in test [2]; 0.063 µM on G810R mutant RET kinase; 0.018 µM on RET kinase Wild Type. Also, half-maximal inhibition in test [3] (IC50) required 0.107 µM.

As for `CC(=O)N1Cc2c(noc2C2CC2)-c2c(n(C(C)C)c3ncnc(N)c23)C1` [Example 36, 1-(11-amino-3-cyclopropyl-7-isopropyl-6,7-dihydroisoxazolo[4,3-c]pyrimido[5′,4′:4,5]pyrrolo[3,2-e]azepin-5(4H)-yl)ethan-1-one 2,2,2-trifluoroacetate], the IC50 against G810S mutant RET kinase came to 0.217 µM; in test [1], 0.144 µM; on RET kinase V804M, 0.235 µM; in test [2] it was 0.053 µM; on G810R mutant RET kinase it was 0.13 µM; against RET kinase Wild Type it was 0.058 µM. Further, it took 0.255 µM to reach half-maximal inhibition in test [3] (IC50).

On to `CC1Cc2c(c3c(N)ncnc3n2C(C)C)-c2noc(C3CC3)c2C1=O` (stereo not drawn) [Example 60, 11-amino-3-cyclopropyl-7-isopropyl-5-methyl-6,7-dihydroisoxazolo[4″,3″:6′,7′]cyclohepta[1′,2′:4,5]pyrrolo[2,3-d]pyrimidin-4(5H)-one], for which the IC50 was determined as 0.04 µM against G810S mutant RET kinase; 0.157 µM in test [1]; 0.098 µM on RET kinase V804M; 0.029 µM in test [2]; 0.045 µM at G810R mutant RET kinase; 0.021 µM on RET kinase Wild Type. This compound yielded a concentration for half-maximal inhibition (IC50) in test [3] of 0.101 µM.

Take `CC1Cc2c(c3c(N)ncnc3n2C(C)C)-c2noc(C3CC3)c2C1O` (stereo not drawn) [Example 61, 11-amino-3-cyclopropyl-7-isopropyl-5-methyl-4,5,6,7-tetrahydroisoxazolo[4″,3″:6′,7′]cyclohepta[1′,2′:4,5]pyrrolo[2,3-d]pyrimidin-4-ol]: the IC50 was found to be 0.058 µM on G810S mutant RET kinase; 0.281 µM in test [1]; 0.136 µM on RET kinase V804M; 0.033 µM in test [2]; 0.089 µM against G810R mutant RET kinase; 0.031 µM against RET kinase Wild Type. This compound also returned an IC50 in test [3] of 0.101 µM.

Take `Cc1ccc2c(c1)cc1n2C(=O)NCc2c-1c1c(N)ncnc1n2C(C)C` [Example 81, 1-amino-5-isopropyl-12-methyl-6,7-dihydropyrimido[5″,4″:4′,5′]pyrrolo[2′,3′: 5,6][1,3]diazepino[1,7-a]indol-8(5H)-one]: the IC50 on G810S mutant RET kinase came to 0.052 µM; in test [1], 0.076 µM; at RET kinase V804M it was 5.49 µM; in test [2] it was 0.011 µM; at G810R mutant RET kinase, 0.094 µM; at RET kinase Wild Type, 0.019 µM. The compound also displayed an IC50 in test [3] of 0.039 µM.

For the compound `CC(C)n1c2c(c3c(N)ncnc31)-c1cc3ccc(C(=O)NC4CC4)cc3n1CCC2` [Example 87, 1-Amino-N-cyclopropyl-5-isopropyl-5,6,7,8-tetrahydropyrimido[5″,4″:4′,5′]pyrrolo[3′,2′:3,4]azepino[1,2-a]indole-11-carboxamide], the IC50 turned out to be 0.204 µM on G810S mutant RET kinase; 0.089 µM in test [1]; 5.78 µM on RET kinase V804M; 0.032 µM in test [2]; 0.202 µM at G810R mutant RET kinase; 0.047 µM against RET kinase Wild Type. The compound further had an IC50 in test [3] of 0.071 µM.

`CC(C)n1c2c(c3c(N)ncnc31)-c1cc3ccc(C(=O)Nc4ccn(CCN5CCOCC5)n4)cc3n1CCC2` [Example 88, 1-amino-5-isopropyl-N-(1-(2-morpholinoethyl)-1H-pyrazol-3-yl)-5,6,7,8-tetrahydropyrimido[5″,4″:4′,5′]pyrrolo[3′,2′: 3,4]azepino[1,2-a]indole-11-carboxamide]: the IC50 against G810S mutant RET kinase was found to be 0.297 µM; in test [1] it was 0.053 µM; on RET kinase V804M, 6.26 µM; in test [2] it was 0.05 µM; against G810R mutant RET kinase, 0.288 µM; against RET kinase Wild Type, 0.062 µM. In addition, the IC50 in test [3] was 0.044 µM.

`CC(C)n1c2c(c3c(N)ncnc31)-c1cc3ccc(C(=O)NC4(C)CC4)cc3n1CCC2` [Example 97, 1-amino-5-isopropyl-N-(1-methylcyclopropyl)-5,6,7,8-tetrahydropyrimido[5″,4″:4′,5′]pyrrolo[3′,2′: 3,4]azepino[1,2-a]indole-11-carboxamide]: the IC50 stood at 0.457 µM on G810S mutant RET kinase; 0.047 µM in test [1]; 4.46 µM at RET kinase V804M; 0.026 µM in test [2]; 0.478 µM at G810R mutant RET kinase; 0.073 µM on RET kinase Wild Type. The compound further registered an IC50 in test [3] of 0.047 µM.

In the case of `Nc1ncnc2c1c1c(n2-c2ccccc2)CCC(O)c2c-1noc2C1CC1` (stereo not drawn) [Example 118, 11-Amino-3-cyclopropyl-7-phenyl-4,5,6,7-tetrahydroisoxazolo[4″,3″:6′,7′]cyclohepta[1′,2′:4,5]pyrrolo[2,3-d]pyrimidin-4-ol 2,2,2-trifluoroacetate], the IC50 amounted to 0.075 µM on G810S mutant RET kinase; 0.206 µM in test [1]; 0.099 µM at RET kinase V804M; 0.125 µM in test [2]; 0.08 µM on G810R mutant RET kinase; 0.131 µM against RET kinase Wild Type. In test [3], this compound registered an IC50 of 0.108 µM.

For `Nc1ncnc2c1c1c(n2C2CCCC2)CCC(O)c2c-1noc2C1CC1` (stereo not drawn) [Example 120, 11-Amino-7-cyclopentyl-3-cyclopropyl-4,5,6,7-tetrahydroisoxazolo[4″,3″:6′,7′]cyclohepta[1′,2′:4,5]pyrrolo[2,3-d]pyrimidin-4-ol], the IC50 against G810S mutant RET kinase came out at 0.024 µM; in test [1] it was 0.035 µM; on RET kinase V804M, 0.02 µM; in test [2], 0.015 µM; against G810R mutant RET kinase it was 0.074 µM; against RET kinase Wild Type, 0.01 µM. This compound also showed an IC50 in test [3] of 0.033 µM.

`Nc1ncnc2c1c1c(n2C2CCC(O)C2)CCC(O)c2c-1noc2C1CC1` (stereo not drawn) [Example 129, 11-Amino-3-cyclopropyl-7-(3-hydroxycyclopentyl)-4,5,6,7-tetrahydroisoxazolo[4″,3″:6′,7′]cyclohepta[1′,2′:4,5]pyrrolo[2,3-d]pyrimidin-4-ol]: the IC50 at G810S mutant RET kinase came out at 0.019 µM; in test [1], 0.046 µM; on RET kinase V804M, 0.021 µM; in test [2], 0.018 µM; on G810R mutant RET kinase it was 0.023 µM; against RET kinase Wild Type it was 0.008 µM. The same compound had an IC50 in test [3] of 0.065 µM.

In the case of `CC(n1c2c(c3c(N)ncnc31)-c1noc(C3CC3)c1C(O)CC2)C(F)(F)F` (stereo not drawn) [Example 131, 11-Amino-3-cyclopropyl-7-(1,1,1-trifluoropropan-2-yl)-4,5,6,7-tetrahydroisoxazolo[4″,3″:6′,7′]cyclohepta[1′,2′:4,5]pyrrolo[2,3-d]pyrimidin-4-ol], the IC50 against G810S mutant RET kinase was 0.018 µM; in test [1], 0.03 µM; on RET kinase V804M it was 0.041 µM; in test [2], 0.014 µM; at G810R mutant RET kinase, 0.097 µM; against RET kinase Wild Type it was 0.014 µM. Also, the IC50 in test [3] is 0.06 µM.
